Experimental data published in patent US20030158254A1, “Engineering absorption of therapeutic compounds via colonic transporters” (XenoPort, Inc., priority 2002, published 2003).

What was measured:
human PEPT1 = target: T1, human PEPT1 (Homo sapiens, UniProt P46059); assay: Electrogenic transport (induced current) in Xenopus oocytes transfected with human PEPT1; assay type: cell-based
T1 construct: Rat and human PEPT1 and PEPT2 transporter cDNAs were subcloned into a modified pGEM plasmid; expressed in transfected cells; host or cells: Xenopus laevis oocytes injected with in vitro transcribed RNA
T1 sequence (P46059 1-708): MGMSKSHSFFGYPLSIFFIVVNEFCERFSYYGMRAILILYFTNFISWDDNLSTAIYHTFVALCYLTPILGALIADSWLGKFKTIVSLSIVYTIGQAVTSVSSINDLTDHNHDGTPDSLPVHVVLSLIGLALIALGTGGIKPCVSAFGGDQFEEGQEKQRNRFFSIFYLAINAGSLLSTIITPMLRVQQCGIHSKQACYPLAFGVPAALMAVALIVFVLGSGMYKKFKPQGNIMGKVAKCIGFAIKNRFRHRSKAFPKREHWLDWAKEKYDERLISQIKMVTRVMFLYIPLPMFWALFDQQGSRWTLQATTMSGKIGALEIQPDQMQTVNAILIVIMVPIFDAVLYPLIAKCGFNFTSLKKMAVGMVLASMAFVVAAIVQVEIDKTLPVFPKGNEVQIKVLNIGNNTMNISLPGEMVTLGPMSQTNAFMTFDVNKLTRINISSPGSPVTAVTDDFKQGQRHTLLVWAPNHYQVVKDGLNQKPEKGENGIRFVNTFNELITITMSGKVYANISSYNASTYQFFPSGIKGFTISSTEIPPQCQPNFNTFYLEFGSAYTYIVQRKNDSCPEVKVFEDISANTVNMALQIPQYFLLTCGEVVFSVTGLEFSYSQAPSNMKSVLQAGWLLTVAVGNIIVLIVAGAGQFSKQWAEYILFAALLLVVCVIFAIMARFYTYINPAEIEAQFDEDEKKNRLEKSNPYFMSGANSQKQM
Description: Rat and human PEPT1 and PEPT2 expressing CHO cell lines were prepared as described in PCT Application WO01/20331. Gabapentin-containing dipeptides were evaluated for interaction with the peptide transporters using a radiolabeled substrate uptake assay in a competitive inhibition format, as described in PCT Application WO01/20331. Transport-induced currents were also measured in Xenopus oocytes transfected with rat and human PEPT1 and PEPT2.
RNA preparation: Rat and human PEPT1 and PEPT2 transporter cDNAs were subcloned into a modified pGEM plasmid that contains 5′ and 3′ untranslated sequences from the Xenopus β-actin gene. These sequences increase RNA stability and protein expression. Plasmid cDNA was linearized and used as template for in vitro transcription (Epicentre Technologies transcription kit, 4:1 methylated:non-methylated guanosine triphosphate(GTP)).
Xenopus oocyte isolation. Xenopus laevis frogs were anesthetized by immersion in Tricaine ([…] in deionized water) for 15 min. […]
Electrophysiology measurements. Transport currents were measured 2-14 days after injection, using a standard two-electrode electrophysiology set-up (Geneclamp 500 amplifier, Digidata 1320/PCLAMP software and ADInstruments hardware and software were used for signal acquisition). […]

hSMVT = target: T2, hSMVT (Homo sapiens, UniProt Q9Y289); assay: Radiolabeled competition assay in SMVT-expressing CHO cells; assay type: cell-based; settings: radiolabeled competition assay in SMVT-expressing CHO cells; read-out: IC50
T2 sequence (Q9Y289 1-635): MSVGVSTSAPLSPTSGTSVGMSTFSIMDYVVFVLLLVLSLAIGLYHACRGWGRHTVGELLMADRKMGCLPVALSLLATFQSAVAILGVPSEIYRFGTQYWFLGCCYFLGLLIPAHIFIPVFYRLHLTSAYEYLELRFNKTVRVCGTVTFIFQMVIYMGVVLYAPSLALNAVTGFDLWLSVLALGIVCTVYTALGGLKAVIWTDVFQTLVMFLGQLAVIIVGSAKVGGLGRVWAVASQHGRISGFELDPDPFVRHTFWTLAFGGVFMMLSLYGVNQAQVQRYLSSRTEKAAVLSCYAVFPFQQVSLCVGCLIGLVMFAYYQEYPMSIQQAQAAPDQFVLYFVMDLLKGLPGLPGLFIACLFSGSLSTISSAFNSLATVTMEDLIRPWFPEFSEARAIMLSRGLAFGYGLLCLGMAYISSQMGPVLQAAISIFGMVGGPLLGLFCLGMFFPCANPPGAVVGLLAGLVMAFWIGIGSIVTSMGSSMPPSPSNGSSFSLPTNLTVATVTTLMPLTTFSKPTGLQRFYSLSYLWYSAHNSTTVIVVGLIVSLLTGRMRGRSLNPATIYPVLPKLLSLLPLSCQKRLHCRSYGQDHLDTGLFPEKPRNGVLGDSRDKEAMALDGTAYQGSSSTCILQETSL
Description: The complete open reading frame of human ATBO+(SLC6A14) and SMVT (SLC5A6) were amplified from human cDNA prepared from liver or intestine mRNA. […] Amplified PCR products were cloned into a modified version of the mammalian expression vector pcDNA3 (termed pMO) that was engineered to contain the 5′ and 3′ untranslated regions from the Xenopus beta-globin gene. All clones were completely sequenced and tested for function by transient transfection in HEK293 cells.
For cell uptake studies, stable CHOK1 clones were seeded into polylysine coated 96-well microtitre plates and grown for 2-3 days. Cells were incubated with experimental solutions (combinations of radiolabeled and unlabeled compounds) for 30 minutes at room temperature, washed four times, and lysed in scintillation solution. Accumulation of radiolabeled molecules was measured in a microtitre scintillation plate reader (Perkin Elmer). Inhibition constants (IC50s) were calculated using curve-fitting software (Prism).

**Q.** For `CC(C)(N)C(=O)NCC1(CC(=O)O)CCCCC1` [Compound V, a-aminoisobutyryl gabapentin], which “Vmax relative to reference substrate Gly-Sar” value (human PEPT1; 1 mM, oocytes transfected with human PEPT1) is on record?
**A.** The value was 66%.

**Q.** And the “Vmax relative to Gly-Sar in the presence of PEPT inhibitor Lys(ε-Dansyl)-Leu” value (human PEPT1; human PEPT transfected oocytes, with Lys(ε-Dansyl)-Leu)?
**A.** The value was under 5%.

**Q.** What about the IC50 (hSMVT) of the same compound?
**A.** The IC50 was 320 µM.
